Structures can show the parent of a compound that is named as a salt.
Target: T1, human orexin-2 (hOX2) receptors (Homo sapiens, UniProt O43614)
T1 construct: expressed in transfected cells
T1 sequence (O43614 1-444): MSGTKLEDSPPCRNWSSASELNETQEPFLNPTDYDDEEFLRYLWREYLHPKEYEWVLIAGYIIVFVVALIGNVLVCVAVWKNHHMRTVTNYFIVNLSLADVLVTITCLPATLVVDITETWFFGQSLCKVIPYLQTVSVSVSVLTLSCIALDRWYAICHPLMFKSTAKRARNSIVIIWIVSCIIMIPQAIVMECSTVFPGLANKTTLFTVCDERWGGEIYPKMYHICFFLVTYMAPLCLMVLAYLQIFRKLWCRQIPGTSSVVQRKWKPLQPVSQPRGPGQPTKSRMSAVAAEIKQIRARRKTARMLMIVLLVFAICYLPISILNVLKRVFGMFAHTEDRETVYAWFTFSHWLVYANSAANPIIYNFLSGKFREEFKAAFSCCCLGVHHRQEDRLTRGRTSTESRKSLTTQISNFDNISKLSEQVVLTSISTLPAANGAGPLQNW
Experiment: Intracellular Ca2+ mobilization assay (FLIPR), antagonism of orexin-A
Assay type: cell-based
Details: CHO(dHFr-) cells stably expressing hOX2; orexin-A at EC80 as agonist; antagonist applied 25 min before; Kb=IC50/(1+[A]/EC50); read-out: Kb (μM) OX2R (human)
Procedure: Intracellular Ca^2+ Mobilization Assay
The Chinese Hamster Ovary (dHFr—) mutant cell line stably expressing human orexin-1 (hOX1) or human orexin-2 (hOX2) receptors were maintained in Dulbecco's Modified Eagle Medium (1X) with GlutaMax™ 1, 4500 mg/L D-Glucose and Sodium Pyruvate (Catalog No. 31966-021, Invitrogen, Carlsbad, Calif.), 5% dialyzed fetal calf serum (Catalog No. 26400-044), 100 μg/ml penicillin and 100 μg/ml streptomycin. The cells were seeded at 5×10^4 cells/well in the poly-D-lysine treated, 96-well, black/clear-bottomed plates (Catalog No. BD356640, BD Biosciences, Palo Alto, Calif.). 24 h later, the cells were loaded for 1 h at 37° C. with 4 μM Flou-4 acetoxymethyl ester (Catalog No. F-14202, Molecular Probes, Eugene, Oreg.) in FLIPR buffer (1×HBSS, 20 mM HEPES, 2.5 mM Probenecid). Hanks' Balanced Salt Solution (HBSS) (10×) (catalog No. 14065-049) and HEPES (1M) (catalog No. 15630-056) were purchased from Invitrogen, Carlsbad, Calif. Probenecid (250 mM) (catalog No. P8761) was from Sigma, Buchs, Switzerland. The cells were washed five times with FLIPR buffer to remove excess dye and intracellular calcium mobilization, [Ca^2+]i were measured using a Fluorometric Imaging Plate Reader (FLIPR-96, Molecular Devices, Menlo Park, Calif.) as described previously (Malherbe et al., Mol. Pharmacol., 64, 823-832, 2003). Orexin A (catalog No. 1455, Toris Cookson Ltd, Bristol, UK) was used as agonist. Orexin A (50 mM stock solution in DMSO) was diluted in FLIPR buffer +0.1% BSA. The EC50 and EC80 values of orexin-A were measured daily from standard agonist concentration-response curves in CHO(dHFr—)—OX1R and —OX2R cell lines. All compounds were dissolved in 100% DMSO. Inhibition curves were determined by addition of 11 concentrations (0.0001-10 μM) of inhibitory compounds and using EC80 value of orexin-A as agonist (a concentration which gave 80% of max agonist response, determined daily). The antagonists were applied 25 min (incubation at 37° C.) before the application of the agonist. Responses were measured as peak increase in fluorescence minus basal, normalized to the maximal stimulatory effect induced by EC80 value of orexin-A or orexin- B. Inhibition curves were fitted according to the Hill equation: y=100/(1+(x/IC50)^nH), where nH=slope factor using Excel-fit 4 software (Microsoft). Kb values were calculated according to the following equation Kb=IC50/(1+[A]/EC50) where A is the concentration of agonist added which is very close to agonist EC80 value, and IC50 and EC50 values were derived from the antagonist inhibition and orexin-A or B agonist curves, respectively.

Compound | Kb [µM]
COc1cc(N(CCc2ccc(C(F)(F)F)nc2)C(=O)[C@@H](O)c2ccc(F)cc2)ccc1C [Example 61, (S)-2-(4-Fluoro-phenyl)-2-hydroxy-N-(3-methoxy-4-methyl-phenyl)-N-[2-(6-trifluoromethyl-pyridin-3-yl)-ethyl]-acetamide] | 0.0026
Cc1cc(N(CCc2ccc(C(F)(F)F)cc2)C(=O)C(N)c2ccc(Cl)cc2)n(C)n1 (racemic) [Example 39, (R,S)-2-Amino-2-(4-chloro-phenyl)-N-(2,5-dimethyl-2H-pyrazol-3-yl)-N-[2-(4-trifluoromethyl-phenyl)-ethyl]-acetamide] | 0.0439
Cc1cc(N(CCc2ccc(C(F)(F)F)cn2)C(=O)[C@@H](O)c2ccc(F)cc2)ccc1F [Example 81, (S)—N-(4-Fluoro-3-methyl-phenyl)-2-(4-fluoro-phenyl)-2-hydroxy-N-[2-(5-trifluoromethyl-pyridin-2-yl)-ethyl]-acetamide] | 0.0197
Cc1ccc(N(CCc2ccc(C(F)(F)F)cn2)C(=O)[C@@H](O)c2ccc(F)cc2)cc1F [Example 80, (S)—N-(3-Fluoro-4-methyl-phenyl)-2-(4-fluoro-phenyl)-2-hydroxy-N-[2-(5-trifluoromethyl-pyridin-2-yl)-ethyl]-acetamide] | 0.0289
Cc1csc(CCN(C(=O)[C@@H](N)c2ccccc2)c2ccc(C)c(C)c2)n1 [Example 67, (S)-2-Amino-N-(3,4-dimethyl-phenyl)-N-[2-(4-methyl-thiazol-2-yl)-ethyl]-2-phenyl-acetamide hydrochloride] | 0.073
CCc1cc(N(CCc2ccc(C(F)(F)F)cn2)C(=O)C(O)c2ccc(F)cc2)ccc1Cl (racemic) [Example 97, (R,S)-N-(4-Chloro-3-ethyl-phenyl)-2-(4-fluoro-phenyl)-2-hydroxy-N-[2-(5-trifluoromethyl-pyridin-2-yl)-ethyl]-acetamide] | 0.0276
(S)-2-Hydroxy-N-(3-methoxy-phenyl)-2-phenyl-N-[2-(6-trifluoromethyl-pyridin-3-yl)-ethyl]-acetamide [Example 58] | 0.0167
Cc1ccc(N(CCc2ccc(C(F)(F)F)nc2)C(=O)[C@@H](C)c2ccccc2)cc1C [Example 24, (S)—N-(3,4-Dimethyl-phenyl)-2-phenyl-N-[2-(6-trifluoromethyl-pyridin-3-yl)-ethyl]-propionamide] | 0.0839
Cc1ccc(N(CCc2ccc(C(F)(F)F)nc2)C(=O)[C@H](O)c2ccccc2)cc1C [Example 3, (R)—N-(3,4-Dimethyl-phenyl)-2-hydroxy-2-phenyl-N-[2-(6-trifluoromethyl-pyridin-3-yl)-ethyl]-acetamide] | 0.0159
O=C([C@@H](O)c1ccccc1)N(CCc1ccc(C(F)(F)F)nc1)c1ccc2c(c1)CCCO2 [Example 62] | 0.011
O=C(C(O)c1ccc(F)cc1)N(CCc1ccc(C(F)(F)F)cn1)c1ccc(F)c(CO)c1 (racemic) [Example 90, (R,S)—N-(4-Fluoro-3-hydroxymethyl-phenyl)-2-(4-fluoro-phenyl)-2-hydroxy-N-[2-(5-trifluoromethyl-pyridin-2-yl)-ethyl]-acetamide] | 0.0438
O=C([C@@H](O)c1ccc(F)cc1)N(CCc1ccc(C(F)(F)F)cn1)c1ccc2c(c1)CCO2 [Example 87, (S)—N-(2,3-Dihydro-benzofuran-5-yl)-2-(4-fluoro-phenyl)-2-hydroxy-N-[2-(5-trifluoromethyl-pyridin-2-yl)-ethyl]-acetamide] | 0.0198
Cc1ccc(CCN(C(=O)C(N)c2ccc(Cl)cc2)c2sc(C)nc2C)cc1 (racemic) [Example 32, (R,S)-2-Amino-2-(4-chloro-phenyl)-N-(2,4-dimethyl-thiazol-5-yl)-N-(2-p-tolyl-ethyl)-acetamide] | 0.0943
Cc1cc(N(CCc2ccc(C(F)(F)F)cc2)C(=O)C(O)c2ccccc2)n(C)n1 (racemic) [Example 42, (R,S)—N-(2,5-Dimethyl-2H-pyrazol-3-yl)-2-hydroxy-2-phenyl-N-[2-(4-trifluoromethyl-phenyl)-ethyl]-acetamide] | 0.0785
Cc1ccc(N(CCc2ccc(C(F)(F)F)cn2)C(=O)C(O)c2ccc(F)cc2)cc1F (racemic) [Example 78, (R,S)—N-(3-Fluoro-4-methyl-phenyl)-2-(4-fluoro-phenyl)-2-hydroxy-N-[2-(5-trifluoromethyl-pyridin-2-yl)-ethyl]-acetamide] | 0.0481

Reference: US8133909B2 (Hoffmann-La Roche Inc., priority 2008, dated 2012)
